Measured values taken from patent US12427157B2, “Methods for treatment of diseases involving acidic or hypoxic diseased tissues” (Cybrexa 1, Inc., priority 2018, dated 2025).
Residues, ends and D or L forms follow the SMILES beside them. *: point of attachment. X4 = C[C@H](COC(=O)NCN1c2cc(F)cc3c(=O)[nH]nc(c23)[C@H](c2ncnn2C)[C@H]1c1ccc(F)cc1)S*

What was measured:
PARP [1] = target: T1, PARP (Homo sapiens, UniProt P09874); test: Enzymatic Assay 1: HT F Homogeneous PARP Inhibition Assay of cleaved compounds; type: biochemical; design: purchased Trevigen #4690-096-K (Assay 1); #4676-096-K (Assay 2)
PARP [2] = target: T1, PARP; test: Enzymatic Assay 2: HT Universal Chemiluminescent PARP Assay of cleaved compounds;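 note: PARP reaction with activated DNA run 1 h at room temperature, product detected via streptavidin-HRP and luminescence endpoint reading on a plate reader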
DLD-1 BRCA2−/− cells = test: Growth delay assay; type: cell-based, Human; conditions: pH 7.4, BRCA (−/−) DLD-1, 96 h
Method: Cells were plated in 96 well black walled-clear bottom plates (Griener), DLD-1 WT cells at 2500 cells per well, DLD-1 BRCA2−/− at 5000 cells per well, in growth media containing 10% FBS. Cells were allowed to adhere at room temperature for 60 minutes before returning to a 37 C, 5% CO2 incubator. After 24 hours, media was removed and replaced with fresh growth media containing various drug concentrations. Each drug concentration was added in triplicate. Non-drug treated controls contained growth media only. Cells were returned to the incubator. Ninety-six hours after addition of drug, cells were fixed with 4% paraformaldehyde for 20 minutes and stained with Hoechst at 1 ug/mL. The plates were imaged on a Cytation 5 auto imager (BioTek) and cells were counted using CellProfiler (http://cellprofiler.org). The percent cell growth delay was calculated and data plotted using GraphPad Prism.

[3] = read-out: IC50 Enzymatic Assay 2, Examples cleaved per Example A (crude cleavage solution), R^8H starting materials as such

T1 sequence (P09874 whole entry): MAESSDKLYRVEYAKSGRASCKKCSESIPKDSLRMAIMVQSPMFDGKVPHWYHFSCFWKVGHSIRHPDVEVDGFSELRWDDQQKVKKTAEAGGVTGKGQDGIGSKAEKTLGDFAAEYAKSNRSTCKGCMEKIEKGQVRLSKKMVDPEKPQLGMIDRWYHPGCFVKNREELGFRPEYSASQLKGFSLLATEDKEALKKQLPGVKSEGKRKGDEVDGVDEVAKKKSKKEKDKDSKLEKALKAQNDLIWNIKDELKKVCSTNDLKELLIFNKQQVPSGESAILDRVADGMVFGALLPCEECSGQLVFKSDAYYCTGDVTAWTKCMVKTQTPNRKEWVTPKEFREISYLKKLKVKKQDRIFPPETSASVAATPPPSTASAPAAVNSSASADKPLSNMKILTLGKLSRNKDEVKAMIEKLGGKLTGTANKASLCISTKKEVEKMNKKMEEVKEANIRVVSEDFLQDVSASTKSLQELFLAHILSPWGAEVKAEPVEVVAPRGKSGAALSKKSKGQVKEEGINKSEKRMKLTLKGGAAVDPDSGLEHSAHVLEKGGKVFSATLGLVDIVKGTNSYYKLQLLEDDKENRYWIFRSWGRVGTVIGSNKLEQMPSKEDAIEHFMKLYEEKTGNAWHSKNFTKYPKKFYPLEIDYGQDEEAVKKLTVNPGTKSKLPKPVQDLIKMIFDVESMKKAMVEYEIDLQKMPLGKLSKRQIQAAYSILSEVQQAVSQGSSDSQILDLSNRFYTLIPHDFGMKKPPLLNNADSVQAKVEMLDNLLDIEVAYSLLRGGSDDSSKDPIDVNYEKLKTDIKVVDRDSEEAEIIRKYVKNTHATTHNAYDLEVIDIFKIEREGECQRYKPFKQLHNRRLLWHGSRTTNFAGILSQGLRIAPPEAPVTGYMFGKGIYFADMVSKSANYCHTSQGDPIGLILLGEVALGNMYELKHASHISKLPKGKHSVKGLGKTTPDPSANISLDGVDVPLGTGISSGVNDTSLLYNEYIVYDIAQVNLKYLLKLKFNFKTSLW

SMILES | IC50 (PARP [1]; read-out: IC50 Enzymatic Assay 1; Examples cleaved per Example A (crude cleavage solution); R^8H starting materials as such; 1 uM NAD) [nM] | IC50 (PARP [2]; [3]) [nM] | IC50 (PARP [1]; Examples cleaved per Example A (crude cleavage solution); R^8H starting materials as such; 1 uM NAD; read-out: IC50 Enzymatic Assay 1) [nM] | IC50 (PARP [2]) [nM] | IC50 (DLD-1 BRCA2−/− cells) [nM]
CC(C)C[C@H](NC(=O)[C@H](Cc1ccc(O)cc1)NC(=O)[C@H](C)NC(=O)[C@H](CCCNC(=N)N)NC(=O)[C@H](Cc1c[nH]c2ccccc12)NC(=O)[C@@H]1CCCN1C(=O)[C@H](CC(N)=O)NC(=O)[C@H](CCC(N)=O)NC(=O)[C@H](CC(=O)O)NC(=O)[C@H](CC(=O)O)NC(=O)[C@H](C)N)C(=O)N[C@@H](CC(=O)O)C(=O)N[C@@H](CC(C)C)C(=O)N[C@@H](CC(C)C)C(=O)N[C@@H](Cc1ccccc1)C(=O)N1CCC[C@H]1C(=O)N[C@H](C(=O)N[C@@H](CC(=O)O)C(=O)N[C@H](C(=O)N[C@@H](CC(C)C)C(=O)N[C@@H](CC(C)C)C(=O)N[C@@H](CC(C)C)C(=O)N[C@@H](CC(=O)O)C(=O)N[C@@H](CC(C)C)C(=O)N[C@@H](CC(C)C)C(=O)N[C@@H](Cc1c[nH]c2ccccc12)C(=O)N[C@@H](CC(=O)O)C(=O)N[C@@H](C)C(=O)N[C@@H](CC(=O)O)C(=O)N[C@@H](CCC(=O)O)C(=O)N[C@@H](CSS[C@H](C)COC(=O)OCc1ccc(-c2nc3c(C(N)=O)cccc3[nH]2)cc1)C(=O)NCC(=O)O)[C@@H](C)O)[C@@H](C)O [Example 7] | 111 | 6.45 | – | – | –
NC(=O)c1cccc2[nH]c(-c3ccc(CO)cc3)nc12 [R^8H-1, 2-[4-(hydroxymethyl)phenyl]-1H-benzimidazole-4-carboxamide, reference compound] | – | – | 96.8 | 6.4 | –
CC(C)C[C@H](NC(=O)[C@H](Cc1ccc(O)cc1)NC(=O)[C@H](C)NC(=O)[C@H](CCCNC(=N)N)NC(=O)[C@H](Cc1c[nH]c2ccccc12)NC(=O)[C@@H]1CCCN1C(=O)[C@H](CC(N)=O)NC(=O)[C@H](CCC(N)=O)NC(=O)[C@H](CC(=O)O)NC(=O)[C@H](CC(=O)O)NC(=O)[C@H](C)N)C(=O)N[C@@H](CC(=O)O)C(=O)N[C@@H](CC(C)C)C(=O)N[C@@H](CC(C)C)C(=O)N[C@@H](Cc1ccccc1)C(=O)N1CCC[C@H]1C(=O)N[C@H](C(=O)N[C@@H](CC(=O)O)C(=O)N[C@H](C(=O)N[C@@H](CC(C)C)C(=O)N[C@@H](CC(C)C)C(=O)N[C@@H](CC(C)C)C(=O)N[C@@H](CC(=O)O)C(=O)N[C@@H](CC(C)C)C(=O)N[C@@H](CC(C)C)C(=O)N[C@@H](Cc1c[nH]c2ccccc12)C(=O)N[C@@H](CSS[C@@H](C)COC(=O)NCN1c2cc(F)cc3c(=O)[nH]nc(c23)[C@H](c2ncnn2C)[C@H]1c1ccc(F)cc1)C(=O)NCC(=O)O)[C@@H](C)O)[C@@H](C)O [Example 42] | – | 1.4 | – | – | 53
CC[C@H](C)[C@H](NC(=O)[C@@H]1CCCN1C(=O)[C@H](CC(N)=O)NC(=O)[C@H](CCC(N)=O)NC(=O)[C@H](CCC(=O)O)NC(=O)[C@H](C)N)C(=O)N[C@@H](Cc1ccc(O)cc1)C(=O)N[C@@H](Cc1c[nH]c2ccccc12)C(=O)N[C@@H](C)C(=O)N[C@@H](CCCNC(=N)N)C(=O)N[C@@H](Cc1ccc(O)cc1)C(=O)N[C@@H](C)C(=O)N[C@@H](CC(=O)O)C(=O)N[C@@H](Cc1c[nH]c2ccccc12)C(=O)N[C@@H](CC(C)C)C(=O)N[C@@H](Cc1ccccc1)C(=O)N[C@H](C(=O)N[C@H](C(=O)N1CCC[C@H]1C(=O)N[C@@H](CC(C)C)C(=O)N[C@@H](CC(C)C)C(=O)N[C@@H](CC(C)C)C(=O)N[C@@H](CC(C)C)C(=O)N[C@@H](CC(=O)O)C(=O)N[C@@H](CC(C)C)C(=O)N[C@@H](C)C(=O)N[C@@H](CC(C)C)C(=O)N[C@@H](CC(C)C)C(=O)N[C@H](C(=O)N[C@@H](CC(=O)O)C(=O)N[C@@H](C)C(=O)N[C@@H](CC(=O)O)C(=O)N[C@@H](CCC(=O)O)C(=O)N[C@@H](CSS[C@H](C)COC(=O)NCN1c2cc(F)cc3c(=O)[nH]nc(c23)[C@H](c2ncnn2C)[C@H]1c1ccc(F)cc1)C(=O)NCC(=O)O)C(C)C)[C@@H](C)O)[C@@H](C)O [Example 14] (H-AEQNPIYWARYADWLFTTPLLLLDLALLVDADEC(X4)G-OH; N-terminus and C-terminus assumed) | – | 0.5 | – | – | 72
